Our source for the XC50 values is ChEMBL document CHEMBL1157539, “Thousands of chemical starting points for antimalarial lead identification” (Nature, 2010).

The assay relates to Plasmodium falciparum. Kind of assay: GSK_TCMDC: Inhibition of Plasmodium falciparum 3D7 in whole erythrocytes, using parasite LDH activity as an index of growth. The assay is classed as functional, organism-based. The conditions noted are these: Plasmodium falciparum, 3D7.

In turn, `O=C(/C=C/c1ccc(C(F)(F)F)cc1)N1CCC(CCN2CCC(c3c[nH]c4ccccc34)CC2)CC1` yielded an XC50 of 716 nM.

Take `Cc1cccc2nc(C(=O)Nc3nc(CN4CCC(C)CC4)cs3)cn12`: the XC50 is 758 nM.

Compound `Oc1ccc2nc(N3CCNCC3)nc(NCCCc3ccccc3)c2c1` displayed an XC50 of 1370 nM.

Regarding `COc1cccc2c(Nc3ccccc3C)nc(Nc3ccccc3C)nc12`, the XC50 turned out to be 679 nM.

`CCOc1ccc2c(c1)OC(c1ccccc1)(C(F)(F)F)NC2=O` (stereo not drawn) showed an XC50 of 167 nM.

`CC(C)(C)c1ccc(NC(=O)c2cccc(CN3CCCN(Cc4cccc(O)c4)CC3)c2)cc1`: the XC50 amounted to 552 nM.

With `N#CCCn1nc(-c2ccc(Cl)cc2)c2c(c1=O)CCCC2`, the XC50 was 892 nM.

`FC(F)(F)COc1ccc2ccccc2c1CCNCCCCNCCc1c(OCC(F)(F)F)ccc2ccccc12` gave an XC50 of 426 nM.

Regarding `O=C(NCCCCN1CCC(c2ccc3c(c2OCC2CC2)CCCC3)CC1)c1ccc(NC(=O)c2ccc(Cl)cc2)cc1`, the XC50 amounted to 680 nM.

Consider `Cn1nc(C(F)(F)F)c(-c2ccc(Br)cc2)c1NC(=O)Nc1ccc(F)cc1F`, for which the XC50 is 793 nM.

`CCN(C)CCCn1c(N(C)C)nc2cc(-n3cnc4cc(-c5ccc(Cl)cc5)sc4c3=O)ccc21` had an XC50 of 1090 nM.

The compound `OC(Cn1ccnc1)(c1ccc(Cl)cc1Cl)C1CCCCC1` (stereo not drawn) showed an XC50 of 984 nM.

In the case of `COc1ccc2nccc([C@@H](O)CN3CCC(NCc4cc5cccc(O)c5c(=O)[nH]4)CC3)c2c1`, the XC50 came out at 385 nM.

`CCCc1cc(Cc2cnc(N)nc2N)cc(CCC)c1OCCCCC(=O)O` displayed an XC50 of 195 nM.

For `COc1cc(NC(=O)c2nn(CCCN3CCC4(CC3)C(=O)NCN4c3ccccc3)cc2-c2ccc(Cl)c(Cl)c2)cc(OC)c1OC`, the XC50 turned out to be 753 nM.

Turning to `[O-][s+]1c(Cl)c(-c2ccc(Cl)cc2)c2ccc(Cl)cc21` (stereo not drawn), the XC50 is 993 nM.

`CC(C)(C)c1ccc(CN2CCCCC(NC(=O)c3cc(-c4ccccc4F)cs3)C2)cc1` (stereo not drawn): the XC50 is 267 nM.

Take `COc1ccc2nccc([C@@H](O)CN3CCC(NCc4cc5oc(=O)[nH]c5cc4F)CC3)c2c1`: the XC50 came out at 774 nM.

`O=C(Nc1cccc(-c2csc(NC(=O)c3ccc4ccccc4c3)n2)c1)c1ccc2ccccc2c1`: the XC50 amounted to 711 nM.

Take `O=C(NCc1ccc(Cl)cc1)c1ccc(C(=O)NCC2CCCN2CC2CCCCC2)cc1` (stereo not drawn): the XC50 worked out at 854 nM.

As for `Cn1cnc(-c2ccc3c(c2)CCN(CCC2CCC(NC(=O)/C=C/c4ccc(F)cc4)CC2)CC3)c1` (stereo not drawn), the XC50 was 904 nM.

The compound `Cc1nc(N)nc(N)c1-c1ccc(Br)cc1` displayed an XC50 of 232 nM.

On to `COc1ccc(NS(=O)(=O)c2ccc(C(=O)Nc3ccc(C(F)(F)F)cc3)cc2)cc1N1CCN(CC2CC2)CC1`, for which the XC50 was 832 nM.

The compound `Oc1cccc(C2CCCN(CCc3c[nH]c4ccccc34)C2)c1` (stereo not drawn) came in with an XC50 of 857 nM.

In turn, `CN1CCCC1CCNC(=O)[C@H](CC1CCCCC1)NC(=O)c1ccc(O)c(-c2ccc(Cl)c(Cl)c2)c1` (stereo partly drawn) displayed an XC50 of 736 nM.

In turn, `O=C(NCCCN1CCC(NC(=O)c2ccc(-c3cccnc3)cc2)CC1)c1ccc(Cl)c(Cl)c1` came in with an XC50 of 854 nM.

As for `O=C(Nc1cccc(F)c1)N[C@H]1CCN(CCCCCNC(=O)C2CC2c2ccc(Cl)c(Cl)c2)C1` (stereo partly drawn), the XC50 worked out at 991 nM.

`Cn1nc2ccc3ccccc3c2nc1=N` displayed an XC50 of 773 nM.

In the case of `Cc1ccc(Nc2nccc(Nc3ccc4c(C)n[nH]c4c3)n2)cc1F`, the XC50 stood at 785 nM.

Take `COc1ccc(CN2CCCN(Cc3cccc(NC(=O)c4ccc(Cl)c(Cl)c4)c3)CC2)cc1`: the XC50 came to 973 nM.

`CC(C)CNCc1ccc(-c2cccc(CNC3CCN(Cc4ccccc4)CC3)c2)cc1` returned an XC50 of 239 nM.

As to `O=C(NC1CCCCC1)C1CCCN(C(=O)c2ccc(O)c(-c3ccc(Cl)c(Cl)c3)c2)C1` (stereo not drawn), the XC50 was 903 nM.

For `CCCCCC(C)(C)NC[C@@H](O)[C@H](Cc1ccccc1)NC(=O)c1cc(NCC)cc(N2CCCC2=O)c1`, the XC50 came out at 674 nM.

As to `N=C(/N=C(/NCCCCCCN/C(=N\C(=N)Nc1ccc(Cl)cc1)N1CCOCC1)N1CCOCC1)Nc1ccc(Cl)cc1`, the XC50 was determined as 713 nM.

`COC(=O)c1cc(/C(C)=N/Nc2nc3ccccc3[nH]2)ccc1O` came in with an XC50 of 676 nM.

Turning to `Cc1cc(=O)c(C2CCC(c3ccc(Cl)cc3)CC2)c(C)[nH]1` (stereo not drawn), the XC50 turned out to be 743 nM.

`Cc1cccc(CNc2nc(C)cc(N[C@@H](Cc3ccccc3)C(=O)NCc3cccc(F)c3)n2)c1`: the XC50 came to 1040 nM.

For the compound `CC(C)(CNC(=O)C1CCN(Cc2ccc(Cl)cc2)CC1)c1nc(-c2ccc(Cl)c(O)c2)c(-c2ccncc2)[nH]1`, the XC50 is 623 nM.

With `CCc1nc(N)nc(N)c1-c1ccc(F)cc1`, the XC50 came to 407 nM.

`COc1ccc(C(C(=O)NC2CCN(C[C@H](O)c3ccnc4ccc(OC)cc34)CC2)N2CCc3ccccc3C2)cc1` (stereo partly drawn) showed an XC50 of 697 nM.

As for `Cc1cc(N/N=C/c2ccc([N+](=O)[O-])cc2)c2ccc(F)cc2n1`, the XC50 came to 888 nM.

`Cc1cc(Nc2cccc(C(F)(F)F)c2)nc(NCc2ccccc2)n1`: the XC50 amounted to 148 nM.

Consider `c1ccc(CNc2cc(-c3ccccn3)nc(-c3ccccn3)n2)cc1`, for which the XC50 amounted to 302 nM.

In the case of `CCOc1cc2c(cc1OCC)C(c1cc(OC)c(O)cc1Cl)NCC2` (stereo not drawn), the XC50 amounted to 748 nM.

With `Nc1c2ccccc2nc2cc([N+](=O)[O-])ccc12`, the XC50 was found to be 870 nM.

Take `COc1ccc(-c2c3c(=O)n(C)c(=O)n(C)c3c3nnc4ccccc4n23)cc1`: the XC50 came to 991 nM.

The compound `FC(F)(F)c1ccc2c(NN=Cc3cccc(Cl)c3)ccnc2c1` gave an XC50 of 838 nM.

`COCCNCc1ccc(-c2cccc(CN(C(=O)CCC3CCCC3)C3CCN(Cc4ccccc4)CC3)c2)cc1` yielded an XC50 of 938 nM.

`COc1cccc(CN2CCC(N3CCc4cc(NC(=O)c5cc(C)on5)ccc43)C2)c1OC` (stereo not drawn): the XC50 came out at 952 nM.

In the case of `COc1cccc2c(NN=Cc3cccc(Cl)c3)ccnc12`, the XC50 was 838 nM.

The compound `O=C(NCc1ccc(Cl)c(Cl)c1)c1ccc(-c2nc3ccc(F)cc3[nH]2)cc1` had an XC50 of 1030 nM.

In the case of `Cc1ccc(Nc2ccnc3ccc(C(F)(F)F)cc23)cc1O`, the XC50 turned out to be 956 nM.

For `Cc1cccc(-c2nn(-c3ccccc3)cc2C(=O)Nc2nnc(C)o2)c1`, the XC50 is 1160 nM.

`COc1ccc(CNC2Cc3ccccc3C2)cc1-c1ccc(S(=O)(=O)NCCN2CCCC2)cc1`: the XC50 came to 582 nM.

In the case of `Cc1noc(C)c1-c1cccc(CNCc2ccc(-c3ccc(-c4nc5cc(F)ccc5[nH]4)s3)cc2)c1`, the XC50 came out at 423 nM.

Compound `CCc1cc(NC(=O)Nc2ccnc3ccccc23)ccc1OC` had an XC50 of 138 nM.

In the case of `c1csc(-c2nc(N3CCCC3)ncc2-c2ccsc2)n1`, the XC50 is 210 nM.

The compound `Cc1ccc(Cn2cnc(N3CC(C)NC(C)C3)cc2=O)cc1NC(=O)Nc1ccc(-c2ccccc2)cc1` (stereo not drawn) returned an XC50 of 851 nM.

Compound `CCCCCCCCCN1CC[C@@H](CCCc2ccnc3ccc(O)cc23)[C@@H](CC)C1` yielded an XC50 of 290 nM.

`O=C(Nc1ccc(F)cc1F)NC1CCN(c2ccnc3cc(Cl)ccc23)C1` (stereo not drawn) displayed an XC50 of 245 nM.

In turn, `Cc1cc(-c2nc3cncc(-c4cccc(CN5CCCC5Cc5cccnc5)c4)c3n2C)nn1C` (stereo not drawn) displayed an XC50 of 132 nM.

`Clc1ccc(CNc2ccnc(NCCc3coc4ccccc34)n2)c(Cl)c1` had an XC50 of 1170 nM.

`COc1ccc(CNCc2ccc(-c3cccc(-c4nc5ccccc5[nH]4)c3)cc2)cc1` returned an XC50 of 214 nM.

The compound `Nc1nc(N)c2c(ccc3c2ccn3Cc2cccc3ccccc23)n1` displayed an XC50 of 3.2 nM.

Compound `CCOc1cc(N)c2nc3ccc([N+](=O)[O-])cc3cc2c1` had an XC50 of 145 nM.

As for `Cc1ccc(CCOCCCCCNCC(O)c2cc(Cl)c(N)c(Cl)c2)cc1` (stereo not drawn), the XC50 came out at 945 nM.

Take `CC[C@H]1CN2CC[C@H]1C[C@H]2[C@H](O)c1cc(-c2ccccc2C(F)(F)F)nc2ccc(OC)cc12`: the XC50 came out at 234 nM.

With `COc1cc2c(cc1OC)CN(CCc1ccc(NC(=O)c3cc4cc(OC(F)(F)F)ccc4[nH]3)cc1)CC2`, the XC50 stood at 535 nM.

`Cc1cccc2nc(-c3ccc(-c4cccc(CNCc5cccc(N)c5)c4)cc3)[nH]c12` showed an XC50 of 390 nM.

Take `COc1cccc(CCNC(C)Cc2ccc(OCCCCOc3ccccc3)cc2)c1` (stereo not drawn): the XC50 was 741 nM.

The compound `COc1cc(NC(=O)c2sc(-c3ccc(Cl)cc3)cc2NC(=O)c2cccnc2)ccc1OCCN1CCCC1` yielded an XC50 of 380 nM.

For the compound `O=C(Cn1c(=O)oc2ccccc21)N1CCC(n2c(=O)n(CCCN3CCOCC3)c3ccccc32)CC1`, the XC50 turned out to be 774 nM.

`CC(C)Cc1ccc(N2CCN(CCCCNC(=O)c3ccc(NC(=O)c4ccc(Cl)c(Cl)c4)cc3)CC2)cc1` displayed an XC50 of 1200 nM.

`COc1ccc(CN(C2CC2)C(C)C(=O)c2[nH]c(C)c(C(C)=O)c2C)cc1` (stereo not drawn) showed an XC50 of 1590 nM.

In turn, `COc1cc(-c2ccccc2)ccc1C(=O)Nc1ccc2c(c1)N(C)CCC2` yielded an XC50 of 325 nM.

As for `CCCCCCNCCOc1ccc(-c2nc(-c3ccccc3)c(-c3ccccc3)[nH]2)cc1`, the XC50 is 669 nM.

Consider `CN(C)CC(O)C(c1ccccc1)c1ccc(Cl)cc1` (stereo not drawn), for which the XC50 turned out to be 48.4 nM.

With `O=C(Nc1ccc2c(c1)CCC2)c1nc(N2CCN(c3ccncc3)CC2)ccc1Cl`, the XC50 turned out to be 1380 nM.

`CC(C)C[C@H](NC(=O)c1cc2ccccc2s1)C(=O)N[C@H]1CCN(Cc2ccc(OC[C@@H]3CCCN3C)c3ccccc23)C1` returned an XC50 of 1160 nM.

As for `COc1ccc2nccc([C@@H](O)CN3CCC(NC/C=C/c4cccnc4)CC3)c2c1`, the XC50 was 622 nM.

Regarding `CC(C)(C)OC(=O)N1CCN(c2ccccc2NC(=O)c2cccc(C(F)(F)F)c2Oc2ccc(F)cc2)CC1`, the XC50 was found to be 857 nM.

With `COC(=O)C(Cc1ccccc1)C(CSCc1ccc(OC)cc1)C(=O)N[C@@H](C(=O)OC(C)(C)C)c1ccc(C(C)(C)C)cc1` (stereo partly drawn), the XC50 amounted to 1030 nM.

`Cc1[nH]c(C)c(-c2ccc(Oc3ccc(F)cc3)cc2)c(=O)c1Br` showed an XC50 of 54.9 nM.

Compound `CC(C)NCc1ccc(-c2cccc(CN3CCC(c4ccccc4)CC3)c2)c(C(=O)NCC2CCCCC2)c1` gave an XC50 of 847 nM.

In the case of `CN(C)CCC1CCN(CCS(=O)(=O)c2cccc(Nc3ccc(-c4ccsc4)cn3)c2)CC1`, the XC50 was found to be 938 nM.

For `Cc1ccc(N2C(N)=NC(N)=NC2c2ccccc2)cc1` (stereo not drawn), the XC50 was found to be 56.6 nM.

As for `O=C(Cc1cn(-c2ccccc2)nc1-c1ccc(Cl)cc1)Nc1nccs1`, the XC50 turned out to be 1200 nM.

With `Cc1cc(Nc2cccc(C(F)(F)F)c2)nc(N)n1`, the XC50 stood at 790 nM.
